Assay results taken from publication PMC11671526, “β-caryophyllene sensitizes hepatocellular carcinoma cells to chemotherapeutics and inhibits cell malignancy through targeting MAPK signaling pathway” (Frontiers in Pharmacology, 2024).

Test system: HepG2 cells
Assay: RNA-seq transcriptome analysis of differentially expressed genes
Assay type: cell-based, human
Conditions: BCP vs control HepG2
Description: The quality and concentration of RNA were examined by MOPS RNA electrophoresis and Eppendorf BioSpectrometer. The transcriptome analysis was performed by BGI-Wuhan China. The RNA-seq dataset of this study is accessible in the Gene Expression Omnibus (GEO) with an access number of GSE276099. The sequence library for each sample was prepared using the BGISEQ-500 platform with a 50-bp single-end (SE50) format. […]2.2.1) was used to align the clean reads to the reference genome and alignment of the clean reads to the reference genes was carried out using Bowtie2 (v2.4.5) ([Langmead and Salzberg, 2012]; [Kim et al., 2015]). Gene expression levels were calculated by RSEM (v1.3.1) ([Li and Dewey, 2011]). Analysis of differential gene expression was performed using edgeR in the Bioconductor software package ([Robinson et al., 2010]). Using a standard protocol, the RNA samples were also examined by reverse transcription and quantitative polymerase chain reaction (RT-qPCR). In brief, for reverse transcription, total RNA (1 μg) and gDNA wiper Mix were incubated at 42°C for 2 min. The samples were immediately incubated with a master mix containing 10 pmol/μL of poly (dT) primers at 37°C for 15 min and 85°C for 5 s. To detect the expression of specific genes by qPCR analysis, gene-specific primers (shown in Supplementary Table S1) were mixed with the ChamQ Universal SYBER qPCR Master Mix and the reaction was conducted using the Roche Lightcycler 480. The GAPDH value was used to normalize the results of each gene. The RNA-seq data of BCP-treated HepG2 cells were screened for DEGs. Gene symbols were turned into Enterz ID using the org.Hs.eg.db Bio-conductor R package. The cluster profiler (v4.6.2) package was used to perform the Kyoto Encyclopedia of Genes and Genomes (KEGG) and Gene Ontology (GO) enrichment analyses ([Wu et al., 2021]). Following the Transcript per million (TPM) data of the dataset, the line chart, and heatmap were plotted using ggplot2 and pheatmap R packages, respectively.

## C=C1CC/C=C(\C)CC[C@@H]2[C@@H]1CC2(C)C [BCP, β-caryophyllene]
Gene RAPGEF3, DEG direction
  change RAPGEF3: Down
Gene RARRES2, RNA-seq
  logFC RARRES2: -0.9419
Gene RARRES2, DEG direction
  change RARRES2: Down
Gene RASSF5, RNA-seq
  logFC RASSF5: -1.261
Gene RASSF5, DEG direction
  change RASSF5: Down
Gene RETREG1, RNA-seq
  logFC RETREG1: 0.6811
Gene RETREG1, DEG direction
  change RETREG1: Up
Gene RHOB, RNA-seq
  logFC RHOB: 0.8378
Gene RHOB, DEG direction
  change RHOB: Up
Gene RHOBTB1, RNA-seq
  logFC RHOBTB1: 0.6316
Gene RHOBTB1, DEG direction
  change RHOBTB1: Up
Gene RILPL2, RNA-seq
  logFC RILPL2: -0.6633
Gene RILPL2, DEG direction
  change RILPL2: Down
Gene RNASE4, RNA-seq
  logFC RNASE4: -1.067
Gene RNASE4, DEG direction
  change RNASE4: Down
Gene RNF182, RNA-seq
  logFC RNF182: 0.812
Gene RNF182, DEG direction
  change RNF182: Up
Gene RNF208, RNA-seq
  logFC RNF208: -0.8526
Gene RNF208, DEG direction
  change RNF208: Down
Gene RSPO3, RNA-seq
  logFC RSPO3: 1.091
Gene RSPO3, DEG direction
  change RSPO3: Up
Gene RUNDC3B, RNA-seq
  logFC RUNDC3B: -1.157
Gene RUNDC3B, DEG direction
  change RUNDC3B: Down
Gene S100A3, RNA-seq
  logFC S100A3: -0.7971
Gene S100A3, DEG direction
  change S100A3: Down
Gene S100A4, RNA-seq
  logFC S100A4: -0.5965
Gene S100A4, DEG direction
  change S100A4: Down
Gene SCIN, RNA-seq
  logFC SCIN: -0.6372
Gene SCIN, DEG direction
  change SCIN: Down
Gene SDCCAG8, RNA-seq
  logFC SDCCAG8: 0.7756
Gene SDCCAG8, DEG direction
  change SDCCAG8: Up
Gene SEL1L, RNA-seq
  logFC SEL1L: 0.5873
Gene SEL1L, DEG direction
  change SEL1L: Up
Gene SELENOP, RNA-seq
  logFC SELENOP: 0.7184
Gene SELENOP, DEG direction
  change SELENOP: Up
Gene SEMA5A, RNA-seq
  logFC SEMA5A: 1.3518
Gene SEMA5A, DEG direction
  change SEMA5A: Up
Gene SIK2, RNA-seq
  logFC SIK2: 0.6807
Gene SIK2, DEG direction
  change SIK2: Up
Gene SLC5A3, RNA-seq
  logFC SLC5A3: -0.7077
Gene SLC5A3, DEG direction
  change SLC5A3: Down
Gene SLC9B2, RNA-seq
  logFC SLC9B2: -0.6372
Gene SLC9B2, DEG direction
  change SLC9B2: Down
Gene SLC16A6, RNA-seq
  logFC SLC16A6: 1.033
Gene SLC16A6, DEG direction
  change SLC16A6: Up
Gene SLC52A3, RNA-seq
  logFC SLC52A3: -2.872
Gene SLC52A3, DEG direction
  change SLC52A3: Down
Gene SLCO4A1, RNA-seq
  logFC SLCO4A1: -0.7226
Gene SLCO4A1, DEG direction
  change SLCO4A1: Down
Gene SLFN5, RNA-seq
  logFC SLFN5: 0.8058
Gene SLFN5, DEG direction
  change SLFN5: Up
Gene SLPI, RNA-seq
  logFC SLPI: -0.5978
Gene SLPI, DEG direction
  change SLPI: Down
Gene SNED1, RNA-seq
  logFC SNED1: 0.7039
Gene SNED1, DEG direction
  change SNED1: Up
Gene SNTB1, RNA-seq
  logFC SNTB1: 0.7574
Gene SNTB1, DEG direction
  change SNTB1: Up
Gene SORBS2, RNA-seq
  logFC SORBS2: 0.9049
Gene SORBS2, DEG direction
  change SORBS2: Up
Gene SPAG16, RNA-seq
  logFC SPAG16: 0.7042
Gene SPAG16, DEG direction
  change SPAG16: Up
Gene SPRY4, RNA-seq
  logFC SPRY4: -0.9938
Gene SPRY4, DEG direction
  change SPRY4: Down
Gene ST6GALNAC6, RNA-seq
  logFC ST6GALNAC6: -0.6732
Gene ST6GALNAC6, DEG direction
  change ST6GALNAC6: Down
Gene STARD10, RNA-seq
  logFC STARD10: -0.7468
Gene STARD10, DEG direction
  change STARD10: Down
Gene SULT1A4, RNA-seq
  logFC SULT1A4: -0.8677
Gene SULT1A4, DEG direction
  change SULT1A4: Down
Gene SV2B, RNA-seq
  logFC SV2B: 1.269
Gene SV2B, DEG direction
  change SV2B: Up
Gene SYN3, RNA-seq
  logFC SYN3: -1.293
Gene SYN3, DEG direction
  change SYN3: Down
Gene TAGLN, RNA-seq
  logFC TAGLN: 1.297
Gene TAGLN, DEG direction
  change TAGLN: Up
Gene TBC1D2, RNA-seq
  logFC TBC1D2: 0.6507
Gene TBC1D2, DEG direction
  change TBC1D2: Up
Gene TBC1D17, RNA-seq
  logFC TBC1D17: -0.5911
Gene TBC1D17, DEG direction
  change TBC1D17: Down
Gene TCIM, RNA-seq
  logFC TCIM: 0.8634
Gene TCIM, DEG direction
  change TCIM: Up
Gene TCN1, RNA-seq
  logFC TCN1: -1.416
Gene TCN1, DEG direction
  change TCN1: Down
Gene TEK, RNA-seq
  logFC TEK: -1.317
Gene TEK, DEG direction
  change TEK: Down
Gene TGFB3, RNA-seq
  logFC TGFB3: -0.7747
Gene TGFB3, DEG direction
  change TGFB3: Down
Gene TIMP3, RNA-seq
  logFC TIMP3: -1.01
Gene TIMP3, DEG direction
  change TIMP3: Down
Gene TLR4, RNA-seq
  logFC TLR4: -0.8506
Gene TLR4, DEG direction
  change TLR4: Down
Gene TM4SF1, RNA-seq
  logFC TM4SF1: 0.7666
Gene TM4SF1, DEG direction
  change TM4SF1: Up
Gene TMEM120B, RNA-seq
  logFC TMEM120B: -0.6536
Gene TMEM120B, DEG direction
  change TMEM120B: Down
Gene TNFSF15, RNA-seq
  logFC TNFSF15: -1.596
Gene TNFSF15, DEG direction
  change TNFSF15: Down
Gene TNXB, RNA-seq
  logFC TNXB: -0.7488
Gene TNXB, DEG direction
  change TNXB: Down
Gene TPBG, RNA-seq
  logFC TPBG: -0.9203
Gene TPBG, DEG direction
  change TPBG: Down
Gene TRNP1, RNA-seq
  logFC TRNP1: -0.8357
Gene TRNP1, DEG direction
  change TRNP1: Down
Gene USH1C, RNA-seq
  logFC USH1C: 0.9916
Gene USH1C, DEG direction
  change USH1C: Up
Gene VAMP1, RNA-seq
  logFC VAMP1: -0.8271
Gene VAMP1, DEG direction
  change VAMP1: Down
Gene VSIR, RNA-seq
  logFC VSIR: -0.6272
Gene VSIR, DEG direction
  change VSIR: Down
Gene XYLT1, RNA-seq
  logFC XYLT1: 1.184
Gene XYLT1, DEG direction
  change XYLT1: Up
Gene ZBED6CL, RNA-seq
  logFC ZBED6CL: -0.9925
Gene ZBED6CL, DEG direction
  change ZBED6CL: Down
Gene ZNF365, RNA-seq
  logFC ZNF365: -1.468
Gene ZNF365, DEG direction
  change ZNF365: Down
Gene ZRANB3, RNA-seq
  logFC ZRANB3: 1.008
Gene ZRANB3, DEG direction
  change ZRANB3: Up
